Laboratory results reported in US12492173B2, “Herbicidal substituted N-tetrazolyl aryl carboxamides” (Bayer Aktiengesellschaft, priority 2019, dated 2025).

Assays:
Assay type in all cases: in vivo
Matricaria inodora = assay: Pre-emergence herbicidal action, MATIN; design: key to Herbicidal action against MATIN: % activity: 100 = plants have died, 0 = like control plants; conditions: for herbicidal activity MATIN / herbicidal action MATIN: dosage 320 g/ha; for herbicidal activity MATIN: scored visually after 3 weeks vs untreated controls (100% = plants have died); for Herbicidal action against MATIN: comparative experiment
How it was run: (§1)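 Weed seeds sown in sandy loam and covered; WP or EC formulations applied to soil surface as aqueous suspension or emulsion at 600 to 800 l/ha with 0.2% wetting agent. Greenhouse-grown, with damage scored visually after 3 weeks versus untreated controls (0% = like control, 100% = plants dead).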

Polygonum convolvulus = assay: Pre-emergence herbicidal action, POLCO; conditions: for herbicidal activity POLCO / herbicidal action POLCO: dosage 320 g/ha; for herbicidal activity POLCO: scored visually after 3 weeks vs untreated controls (100% = plants have died)
How it was run: as §1

Viola tricolor = assay: Pre-emergence herbicidal action, VIOTR; design: key to Herbicidal action against VIOTR: % activity: 100 = plants have died, 0 = like control plants; conditions: for herbicidal activity VIOTR / herbicidal action VIOTR: dosage 320 g/ha; for herbicidal activity VIOTR: scored visually after 3 weeks vs untreated controls (100% = plants have died); for Herbicidal action against VIOTR: comparative experiment, 80 g of a.i./ha
How it was run: as §1

Avena fatua = assay: Post-emergence herbicidal action, AVEFA; design: key: % herbicidal action vs untreated; 100 = plants died, 0 = like control; conditions: for Herbicidal action against AVEFA: comparative experiment
How it was run: (§2)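 Greenhouse weeds grown in sandy loam were sprayed at the one-leaf stage, 2–3 weeks after sowing, with WP or EC formulations at 600–800 l/ha water plus 0.2% wetting agent. Damage scored visually about 3 weeks later, in percent against untreated controls (100% = plants dead).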

Pharbitis purpurea = assay: Post-emergence herbicidal action, PHBPU
How it was run: as §2

Setaria viridis = assay: Post-emergence herbicidal action, SETVI; design: key: % herbicidal action vs untreated; 100 = plants died, 0 = like control; conditions: for Herbicidal action against SETVI: comparative experiment, 20 g of a.i./ha
How it was run: as §2

[1] = post-emergence, 20 g of a.i./ha

Row | Compound | herbicidal activity MATIN (Matricaria inodora) [%] | herbicidal activity POLCO (Polygonum convolvulus) [%] | herbicidal activity VIOTR (Viola tricolor) [%] | herbicidal action AVEFA (Avena fatua; post-emergence, dosage 80 g/ha) [%] | herbicidal action PHBPU (Pharbitis purpurea; post-emergence, dosage 80 g/ha) [%] | herbicidal action SETVI (Setaria viridis; post-emergence, dosage 80 g/ha) [%] | herbicidal action AVEFA (Avena fatua; Dosage 80 g/ha) | herbicidal action PHBPU (Pharbitis purpurea; Dosage 80 g/ha) | herbicidal action SETVI (Setaria viridis; Dosage 80 g/ha) | other results
1 | Cn1nnnc1NC(=O)c1ccc(C(F)F)c(CS(C)(=O)=O)c1Cl [Example 1-322] | 100 | 100 | 100 | 80 | 80 | 100 |  |  |  | 
2 | CCCn1nnnc1NC(=O)c1ccc(C(F)F)c(CSCC)c1Cl [Example 3-323] | 100 | 100 | 100 |  |  |  | 90 | 90 | 100 | 
3 | CC[S+]([O-])Cc1c(C(F)(F)F)ccc(C(=O)Nc2nnnn2C)c1Br (racemic) [Example 1-384] | 100 | 90 | 100 | 100 | 90 | 90 |  |  |  | Herbicidal action against VIOTR (Viola tricolor): 100; Herbicidal action against SETVI (Setaria viridis; post-emergence): 90
4 | CCS(=O)(=O)Cc1c(C(F)F)ccc(C(=O)Nc2nnnn2C)c1Cl [Example 1-325] | 100 | 100 | 100 |  |  |  | 90 | 100 | 100 | 
5 | CCn1nnnc1NC(=O)c1ccc(C(F)(F)F)c(CSC)c1Cl [Example 2-296] | 100 | 100 | 100 | 100 | 90 | 90 |  |  |  | 
6 | CCSCc1c(C(F)(F)F)ccc(C(=O)Nc2nnnn2CC)c1C [Example 2-86] |  |  |  | 100 | 90 | 90 |  |  |  | herbicidal action MATIN (Matricaria inodora): 100%; herbicidal action POLCO (Polygonum convolvulus): 80%; herbicidal action VIOTR (Viola tricolor): 100%
7 | CCn1nnnc1NC(=O)c1ccc(C(F)(F)F)c(CS(=O)(=O)CC)c1Br [Example 2-385] | 100 | 100 | 100 | 90 | 80 | 90 |  |  |  | 
8 | CCSCc1c(C(F)F)ccc(C(=O)Nc2nnnn2CC)c1Cl [Example 2-323] | 100 | 100 | 100 | 100 | 90 | 100 |  |  |  | 
9 | CCCn1nnnc1NC(=O)c1ccc(C(F)(F)F)c(C[S+](C)[O-])c1OC (stereo not shown) [Example 3-135] |  |  |  |  |  |  | 100 | 90 | 100 | herbicidal action MATIN (Matricaria inodora): 100%; herbicidal action POLCO (Polygonum convolvulus): 90%; herbicidal action VIOTR (Viola tricolor): 100%
10 | CCn1nnnc1NC(=O)c1ccc(C(F)(F)F)c(C[S+](C)[O-])c1Cl (stereo not shown) [Example 2-297] | 100 | 80 | 100 | 100 | 100 | 100 |  |  |  | 
11 | CCCn1nnnc1NC(=O)c1ccc(C(F)F)c(CS(=O)(=O)CC)c1Cl [Example 3-325] | 100 | 100 | 100 |  |  |  | 100 | 90 | 100 | 
12 | CCS(=O)(=O)Cc1c(C(F)(F)F)ccc(C(=O)Nc2nnnn2C)c1Br [Example 1-385] | 100 | 90 | 100 | 100 | 90 | 100 |  |  |  | Herbicidal action against MATIN (Matricaria inodora; 80 g of a.i./ha): 100; Herbicidal action against AVEFA (Avena fatua; [1]): 80; Herbicidal action against PHBPU (Pharbitis purpurea; comparative experiment, post-emergence, 20 g of a.i./ha): 80; Herbicidal action against SETVI (Setaria viridis; post-emergence): 90
13 | Cn1nnnc1NC(=O)c1ccc(C(F)(F)F)c(C[S+]([O-])CC(F)(F)F)c1Cl (racemic) [Example 1-312] | 100 | 90 | 100 | 90 | 100 | 100 |  |  |  | 
14 | CCCn1nnnc1NC(=O)c1ccc(C(F)(F)F)c(C[S+]([O-])CC)c1Br (stereo not shown) [Example 3-384] | 100 | 80 | 100 |  |  |  | 90 | 80 | 100 | 
15 | Cn1nnnc1NC(=O)c1ccc(C(F)(F)F)c(CS(=O)(=O)CC2CC2)c1Cl [Example 1-316] | 100 | 100 | 100 |  |  |  | 100 | 90 | 90 | 
16 | COCC[S+]([O-])Cc1c(C(F)(F)F)ccc(C(=O)Nc2nnnn2C)c1Cl (racemic) [Example 1-306] | 100 | 80 | 100 |  |  |  | 80 | 90 | 90 | 
17 | CSc1c(C(=O)Nc2nnnn2C)ccc(C(F)(F)F)c1C[S+](C)[O-] (stereo not shown) [Example 1-162] | 100 | 100 | 100 | 100 | 100 | 100 |  |  |  | Herbicidal action against POLCO (Polygonum convolvulus; comparative experiment, 20 g of a.i./ha): 80
18 | CCSCc1c(C(F)(F)F)ccc(C(=O)Nc2nnnn2C)c1Br [Example 1-383] | 100 | 100 | 100 | 90 | 90 | 90 |  |  |  | Herbicidal action against VIOTR (Viola tricolor): 100; Herbicidal action against AVEFA (Avena fatua; [1]): 90; Herbicidal action against SETVI (Setaria viridis; post-emergence): 90
19 | Cn1nnnc1NC(=O)c1ccc(I)c(C[S+](C)[O-])c1Cl (racemic) [Example 1-363] | 100 | 90 | 100 | 100 | 90 | 100 |  |  |  | Herbicidal action against MATIN (Matricaria inodora; 20 g of a.i./ha): 90
20 | CCn1nnnc1NC(=O)c1ccc(C(F)F)c(CS(=O)(=O)CC)c1Cl [Example 2-325] | 100 | 100 | 100 |  |  |  | 90 | 90 | 100 | 
21 | CCSCc1c(C(F)(F)F)ccc(C(=O)Nc2nnnn2C)c1Cl [Example 1-299] | 100 | 90 | 100 | 90 | 90 | 90 |  |  |  | Herbicidal action against MATIN (Matricaria inodora; 20 g of a.i./ha): 90; Herbicidal action against AVEFA (Avena fatua; post-emergence, 5 g of a.i./ha): 80
22 | CCCn1nnnc1NC(=O)c1ccc(C(F)(F)F)c(CS(C)(=O)=O)c1Cl [Example 3-298] | 100 | 80 | 100 |  |  |  | 100 | 100 | 80 | 
